What follows are compounds tested against T1, Aβ1-40 (Homo sapiens, UniProt P05067) (assay: MS (electrospray mass spectrometry) binding assay for Aβ40). Conditions: Table 3C; 20 μM Aβ peptide, 100 μM compound.
T1 construct: most is normally secreted as a 40 (“Aβ1-40”) or 42 (“Aβ1-42”) amino acid peptide
T1 sequence (P05067 672-711 limits assumed): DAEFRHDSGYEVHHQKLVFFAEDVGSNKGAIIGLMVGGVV
Description: (§1) The ability of a therapeutic compound of the invention to inhibit an interaction between an amyloidogenic protein and a glycoprotein or proteoglycan constituent of a basement membrane can be assessed by an in vitro binding assay, such as that described in U.S. Pat. No. 5,164,295, the contents of which are hereby incorporated by reference. Alternatively, the ability of a compound to bind to an amyloidogenic protein or to inhibit the binding of a basement membrane constituent (e.g., HSPG) to an amyloidogenic protein (e.g., Aβ) can be measured using a mass spectrometry assay where soluble protein, e.g., Aβ, IAPP, β2M is incubated with the compound. A compound which binds to, e.g., Aβ, will induce a change in the mass spectrum of the protein. Exemplary protocols for a mass spectrometry assay employing Aβ and IAPP can be found in the Examples, the results of which are provided in Table 3. The protocol can readily be modified to adjust the sensitivity of the data, e.g., by adjusting the amount of protein and/or compound employed. Thus, e.g., binding might be detected for test compounds noted as not having detectable binding employing less sensitive test protocols.
(§2) The test compounds were synthesized and screened by mass spectrometry (“MS”) assays, except for selected compounds which were purchased from a commercial source. The MS assay gives data on the ability of compounds to bind to proteins, in this example, to β-amyloid and IAPP.
(§3) The pH value of each sample was adjusted to 7.4 (±0.2) by addition of 0.1% aqueous sodium hydroxide. The solutions were then analyzed by electrospray ionization mass spectrometry using a Waters ZQ 4000 mass spectrometer. Samples were introduced by direct infusion at a flow-rate of 25 μL/min within 2 hr. after sample preparation. The source temperature was kept at 70° C. and the cone voltage was 20 V for all the analysis. Data were processed using Masslynx 3.5 software. The MS assay gives data on the ability of compounds to bind to soluble Aβ, whereas the ThT, EM and CD assays give data on inhibition of fibrillogenesis. In Table 3, a blank box means that a value was not determined for that compound in that assay.
CCCCCCCCCNCCC(C)S(=O)(=O)[O-].[Na+] (centres unmarked) [JN, 4-(nonylamino)-2-butanesulfonic acid] was tested, and the “MS binding Aβ1-40” value was “++ (40-74% binding=(++))”.

What follows are compounds tested against T2, IAPP (Homo sapiens, UniProt P10997) (assay: MS (electrospray mass spectrometry) binding assay for IAPP). Conditions: Table 3C; 20 μM Aβ peptide, 100 μM compound (so in the source).
T2 construct: which is a 37 amino acid peptide, derived from a larger precursor peptide, called pro-IAPP
T2 sequence (P10997 34-70 limits assumed): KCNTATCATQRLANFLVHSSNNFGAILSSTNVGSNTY
Description: as §1, §2
as §3, with “In the MS assay for Aβ40, samples were prepared as aqueous solutions (adding 20% ethanol if necessary to solubilize in water), 200 μM of a test compound and 20 μM of solubilized Aβ40, or 400 μM of a test compound and 40 μM of solubilized Aβ40. The pH” for “The pH”
The key below describes the codes used in Table 3A to quantify the binding based on the intensity of the absorption.
With CCCCCCCCCNCCC(C)S(=O)(=O)[O-].[Na+] (centres unmarked) [JN, 4-(nonylamino)-2-butanesulfonic acid] the “MS binding IAPP” value was “+ (20-39% binding=(+))”.

The compounds below were run against T3, NAC peptide (Homo sapiens, UniProt P37840) (assay: Binding to NAC peptide by electrospray mass spectrometry). Conditions: 5:1 ratio (20 μM NAC: 100 μM test compound or 40 μM NAC: 200 μM test compound), 6.6% EtOH, pH 7.4; bound complex peak area / unbound NAC peak area.
T3 construct: NAC is a 35 amino acid long peptide with highly hydrophobic stretches
Experimental: The ability of the compounds of the present invention to bind to NAC peptide in aqueous solution was evaluated. The binding ability correlates to the intensities of the peptide-compound complex peaks observed by the Electrospray Mass Spectrum. Millipore distilled deionized water was used to prepare all aqueous solutions. For pH determination a Beckman Φ36 pH meter fitted with a Corning Semi-Micro Combination pH Electrode was employed.
The optimal cone voltage was determined to be 20V.
Mass spectrometry—Mass spectrometric analysis was performed using a Waters ZQ 4000 mass spectrometer equipped with a Waters 2795 sample manager. MassLynx 4.0 (earlier by MassLynx 3.5) was used for data processing and analysis. Test compounds were mixed with disaggregated peptides in aqueous media (6.6% EtOH) at a 5:1 ratio (20 μM NAC: 100 μM of test compound or 40 μM NAC:200 μM of test compound). The pH of the mixture was adjusted to 7.4 (±0.2) using 0.1% NaOH (3-5 μL). Periodically, NAC peptide solution at 20 μM or 40 μM was also prepared in the same fashion and run as control. The spectra were obtained by introducing the solutions to the electrospray source by direct infusion using a syringe pump at a flow rate of 25 μl/min, and scanning from 100 to 2100 Da in the positive mode. The scan time was 0.9 sec per scan with an inter-scan delay of 0.1 sec and the run time was 5 min for each sample. All the mass spectra were sum of 300 scans. The desolvation and source temperature was 70° C. and the cone and capillary voltage were maintained at 20 V and 3.2 kV respectively.
The total area under the peaks for the bound NAC-compound complex divided by total area under the peaks for unbound NAC was determined for each compound tested.
In the case of O=S(=O)([O-])OCCCOS(=O)(=O)[O-].[Na+].[Na+] [NaO3SOCH2CH2CH2OSO3Na], the “NAC peptide Binding Strength” value is reported as “− (− = None; when the total binding is between 30% and 0%)”.
With NCCCCS(=O)(=O)O the “NAC peptide Binding Strength” value was “+ (+ = Weak; when the total binding is between 70% and 30%)”.
NCCCOS(=O)(=O)[O-].[Na+] [H2NCH2CH2CH2OSO3Na] was tested, and the “NAC peptide Binding Strength” value was “++ (++ = Moderate; when the total binding is between 120% and 70%)”.
With O=S(=O)([O-])CCCCS(=O)(=O)[O-].[Na+].[Na+] [NaO3SCH2(CH2)2CH2SO3Na] the “NAC peptide Binding Strength” value was “− (− = None; when the total binding is between 30% and 0%)”.
In the case of O=S(=O)(O)CC(O)CNC1CCCCC1 (centres unmarked) [drawing 490], the “NAC peptide Binding Strength” value is reported as “+++ (+++ = Strong; when the total binding is 120% and higher)”.
NCCS(=O)(=O)O [H2NCH2CH2SO3H] was tested, and the “NAC peptide Binding Strength” value was “+ (+ = Weak; when the total binding is between 70% and 30%)”.
In the case of O=S(=O)(O)CCCNC1C2CC3CC(C2)CC1C3 (centres unmarked) [drawing 488], the “NAC peptide Binding Strength” value is reported as “++ (++ = Moderate; when the total binding is between 120% and 70%)”.
With CC(C)(C)NCCCS(=O)(=O)O [drawing 487] the “NAC peptide Binding Strength” value was “++ (++ = Moderate; when the total binding is between 120% and 70%)”.
With NCCOS(=O)(=O)O [NH2CH2CH2OSO3H] the “NAC peptide Binding Strength” value was “− (− = None; when the total binding is between 30% and 0%)”.
